Measured values published in the supplement of paper PMC10307832.

Assays:
Assay in all cases: relative viability (nuclei count vs DMSO), 5 days (fraction); higher = more cells survive
Doramapimod + Foretinib = compound: Cc1ccc(-n2nc(C(C)(C)C)cc2NC(=O)Nc2ccc(OCCN3CCOCC3)c3ccccc23)cc1 [Doramapimod] + COc1cc2c(Oc3ccc(NC(=O)C4(C(=O)Nc5ccc(F)cc5)CC4)cc3F)ccnc2cc1OCCCN1CCOCC1 [Foretinib] (partner 0.25 µM)
In short: (§1)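 Lung cancer cell lines in 1536-well plates got either a single drug or a fixed anchor-drug dose together with five library-drug doses (not always all listed) in √10 steps, by pin tool, on the day after seeding. Nuclei were counted after 5 days, and relative viability is the treated-to-vehicle ratio of nuclei counts. Values are medians of duplicate plates.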

Doramapimod + Luminespib = compound: Cc1ccc(-n2nc(C(C)(C)C)cc2NC(=O)Nc2ccc(OCCN3CCOCC3)c3ccccc23)cc1 [Doramapimod] + CCNC(=O)c1noc(-c2cc(C(C)C)c(O)cc2O)c1-c1ccc(CN2CCOCC2)cc1 [Luminespib] (partner 0.01 µM)
In short: as §1

RAF265 + AZD7762 = compound: Cn1c(Nc2ccc(C(F)(F)F)cc2)nc2cc(Oc3ccnc(-c4ncc(C(F)(F)F)[nH]4)c3)ccc21 [RAF265] + NC(=O)Nc1cc(-c2cccc(F)c2)sc1C(=O)N[C@H]1CCCNC1 [AZD7762] (partner 0.2 µM)
In short: as §1

IPA-3 + Foretinib = compound: C1=CC=C2C(=C1)C=CC(=C2SSC3=C(C=CC4=CC=CC=C43)O)O [IPA-3] + COc1cc2c(Oc3ccc(NC(=O)C4(C(=O)Nc5ccc(F)cc5)CC4)cc3F)ccnc2cc1OCCCN1CCOCC1 [Foretinib] (partner 0.25 µM)
In short: as §1

Cell Line | relative viability (Doramapimod + Foretinib; first compound 0.02 µM) | relative viability (Doramapimod + Foretinib; first compound 0.06325 µM) | relative viability (Doramapimod + Foretinib; first compound 0.2 µM) | relative viability (Doramapimod + Foretinib; first compound 0.6325 µM) | relative viability (Doramapimod + Foretinib; first compound 2 µM) | relative viability (Doramapimod + Luminespib; first compound 0.02 µM) | relative viability (Doramapimod + Luminespib; first compound 0.06325 µM) | relative viability (Doramapimod + Luminespib; first compound 0.2 µM) | relative viability (Doramapimod + Luminespib; first compound 0.6325 µM) | relative viability (Doramapimod + Luminespib; first compound 2 µM) | relative viability (RAF265 + AZD7762; first compound 0.01 µM) | relative viability (RAF265 + AZD7762; first compound 0.03162 µM) | relative viability (RAF265 + AZD7762; first compound 0.1 µM) | relative viability (RAF265 + AZD7762; first compound 0.3162 µM) | relative viability (RAF265 + AZD7762; first compound 1 µM) | relative viability (IPA-3 + Foretinib; first compound 0.2 µM) | relative viability (IPA-3 + Foretinib; first compound 0.6325 µM) | relative viability (IPA-3 + Foretinib; first compound 2 µM) | relative viability (IPA-3 + Foretinib; first compound 6.325 µM) | relative viability (IPA-3 + Foretinib; first compound 20 µM)
NCI-H2405 | 1.11 | 1.01 | 1.04 | 1.14 | 0.998 | 0.639 | 0.591 | 0.794 | 0.885 | 0.522 | 0.849 | 0.723 | 0.634 | 0.549 | 0.326 | 1.12 | 1.07 | 1.07 | 1.07 | 1.06
NCI-H2126 | 1.21 | 0.988 | 1.14 | 1.34 | 1.2 | 0.832 | 0.906 | 0.964 | 1.03 | 0.702 | 1.04 | 0.962 | 0.968 | 0.935 | 0.848 | 1.21 | 1.23 | 0.904 | 1.17 | 1.18
NCI-H1944 | 0.782 | 0.918 | 0.883 | 0.957 | 0.715 | 0.626 | 0.777 | 0.718 | 0.769 | 0.655 | 0.75 | 0.617 | 0.512 | 0.448 | 0.365 | 1.05 | 0.856 | 0.879 | 0.938 | 0.928
NCI-H358 | 0.579 | 0.563 | 0.682 | 0.826 | 0.63 | 0.276 | 0.424 | 0.516 | 0.38 | 0.208 | 0.46 | 0.515 | 0.491 | 0.279 | 0.184 | 0.815 | 0.622 | 0.713 | 0.732 | 0.721
NCI-H1734 | 0.808 | 0.805 | 0.802 | 0.767 | 0.598 | 0.227 | 0.259 | 0.214 | 0.17 | 0.18 | 0.545 | 0.516 | 0.437 | 0.325 | 0.217 | 0.972 | 0.803 | 0.845 | 0.92 | 0.934
A-427 | 1.02 | 1.15 | 1.12 | – | 0.997 | 0.979 | 0.806 | 1.08 | – | 0.918 | 0.798 | 0.746 | 0.641 | 0.448 | 0.247 | 1.1 | 1.08 | 1.11 | 1.06 | 1.14
RERF-LC-KJ | 0.87 | 0.955 | 0.884 | 0.9 | 0.869 | 1.35 | 1.16 | 1.24 | 1.36 | 1.2 | 1.1 | 1.03 | 0.765 | 0.756 | 0.557 | 1.02 | 0.913 | 0.868 | 0.847 | 1.04
NCI-H727 | 0.665 | 0.857 | 0.857 | 1.05 | 0.801 | 0.363 | 0.312 | 0.342 | 0.306 | 0.225 | 0.471 | 0.67 | 0.576 | 0.494 | 0.606 | 0.898 | 0.81 | 1.17 | 0.615 | 0.73
LCLC-97TM1 | 0.842 | 1.02 | 0.895 | 0.94 | 0.819 | 0.789 | 0.689 | 0.795 | 0.705 | 0.537 | 0.203 | 0.323 | 0.259 | 0.167 | 0.0766 | 0.958 | 0.928 | 0.915 | 0.861 | 0.958
BEN | 0.663 | 0.639 | 0.603 | 0.469 | 0.676 | 0.537 | 0.56 | 0.351 | 0.13 | 0.352 | 0.675 | 0.805 | 0.837 | 0.674 | 0.661 | 0.733 | 0.598 | 0.729 | 0.889 | 0.614
LC-2-ad | 0.927 | 0.882 | 0.865 | 0.559 | 0.807 | 1.02 | 1.03 | 1.09 | 1.15 | 0.984 | 0.848 | 0.933 | 0.914 | 0.721 | 0.669 | 0.986 | 0.934 | 0.832 | 0.938 | 1.03
ABC-1 | 1.39 | 1.11 | 1.05 | 0.919 | 0.881 | 0.423 | 0.67 | 0.156 | 0.863 | 0.555 | 0.993 | 0.771 | 0.798 | 1.06 | 0.47 | 1.06 | 1.13 | 1 | 1.17 | 1.19
NCI-H647 | 0.903 | 1.07 | 1.25 | 1.29 | 1.16 | 0.189 | 0.224 | 0.151 | 0.347 | 0.154 | 0.578 | 0.452 | 0.404 | 0.332 | 0.262 | 1.36 | 1.26 | 1.08 | 1.03 | 1.12
NCI-H1755 | 0.984 | 0.928 | 0.93 | 0.892 | 0.866 | 0.354 | 0.426 | 0.411 | 0.431 | 0.22 | 0.548 | 0.475 | 0.483 | 0.405 | 0.425 | 0.923 | 0.884 | 0.879 | 0.85 | 0.952
EPLC-272H | 0.776 | 0.658 | 0.788 | 0.934 | 0.57 | 0.368 | 0.296 | 0.741 | 0.494 | 0.187 | 0.213 | 0.181 | 0.223 | 0.161 | 0.15 | 0.901 | 0.639 | 0.655 | 0.795 | 0.857
NCI-H1437 | 1.37 | 1.39 | 1.35 | 1.38 | 1.2 | 1.2 | 1.21 | 1.16 | 1.15 | 1.2 | 1.08 | 1.13 | 1.2 | 1.15 | 1.1 | 1.37 | 1.23 | 1.32 | 1.2 | 1.35
